Measurements as given in the supplement of paper PMC10307832.

Columns and labels:
Test in all cases: relative viability (nuclei count vs DMSO), 5 days (fraction); higher = more cells survive
OSI-027 + Pemetrexed = compound: COc1cccc2cc(-c3nc([C@H]4CC[C@H](C(=O)O)CC4)n4ncnc(N)c34)[nH]c12 [OSI-027] + Nc1nc2[nH]cc(CCc3ccc(C(=O)N[C@@H](CCC(=O)O)C(=O)O)cc3)c2c(=O)[nH]1 [Pemetrexed] (partner 0.2 µM)
How it was run: (§1)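 After 5 days of treatment, lung cancer cells in 1536-well plates were fixed and stained in a single step (final 0.05% Triton X-100, 1% formaldehyde, 1 ug/ml Hoechst) and their nuclei counted on 4× images. Treatment had been applied by pin tool the day after seeding as one drug alone or as a fixed anchor-drug dose with five library-drug doses (not always all listed) in √10 steps. Relative viability is the nuclei count of treated wells divided by that of vehicle wells, and values are medians of duplicate plates.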

Vemurafenib + Trametinib = compound: CCCS(=O)(=O)Nc1ccc(F)c(C(=O)c2c[nH]c3ncc(-c4ccc(Cl)cc4)cc23)c1F [Vemurafenib] + CC(=O)Nc1cccc(-n2c(=O)n(C3CC3)c(=O)c3c(Nc4ccc(I)cc4F)n(C)c(=O)c(C)c32)c1 [Trametinib] (partner 0.02 µM)
How it was run: as §1

Alpelisib + Vorinostat = compound: Cc1nc(NC(=O)N2CCC[C@H]2C(N)=O)sc1-c1ccnc(C(C)(C)C(F)(F)F)c1 [Alpelisib] + O=C(CCCCCCC(=O)Nc1ccccc1)NO [Vorinostat] (partner 1 µM)
How it was run: as §1

Vemurafenib + AZD7762 = compound: CCCS(=O)(=O)Nc1ccc(F)c(C(=O)c2c[nH]c3ncc(-c4ccc(Cl)cc4)cc23)c1F [Vemurafenib] + NC(=O)Nc1cc(-c2cccc(F)c2)sc1C(=O)N[C@H]1CCCNC1 [AZD7762] (partner 0.2 µM)
How it was run: as §1

Row | Cell Line | relative viability (OSI-027 + Pemetrexed; first compound 0.01 µM) | relative viability (OSI-027 + Pemetrexed; first compound 0.03162 µM) | relative viability (OSI-027 + Pemetrexed; first compound 0.1 µM) | relative viability (OSI-027 + Pemetrexed; first compound 0.3162 µM) | relative viability (OSI-027 + Pemetrexed; first compound 1 µM) | relative viability (Vemurafenib + Trametinib; first compound 0.03162 µM) | relative viability (Vemurafenib + Trametinib; first compound 0.1 µM) | relative viability (Vemurafenib + Trametinib; first compound 1 µM) | relative viability (Alpelisib + Vorinostat; first compound 0.04 µM) | relative viability (Alpelisib + Vorinostat; first compound 0.1265 µM) | relative viability (Alpelisib + Vorinostat; first compound 0.4 µM) | relative viability (Alpelisib + Vorinostat; first compound 1.265 µM) | relative viability (Alpelisib + Vorinostat; first compound 4 µM) | relative viability (Vemurafenib + AZD7762; first compound 0.03162 µM) | relative viability (Vemurafenib + AZD7762; first compound 0.1 µM) | relative viability (Vemurafenib + AZD7762; first compound 1 µM) | relative viability (Vemurafenib + Trametinib; first compound 0.3162 µM) | relative viability (Vemurafenib + AZD7762; first compound 0.3162 µM)
1 | A-427 | 0.575 | 0.966 | 0.783 | 0.737 | 0.616 | 0.711 | 0.702 | 0.763 | 0.854 | 0.861 | 0.893 | 0.827 | 0.858 | 0.696 | 0.709 | 0.792 |  | 
2 | NCI-H1703 |  |  |  |  |  |  |  |  |  |  |  |  |  | 0.12 |  | 0.101 |  | 
3 | HCC-366 | 0.18 | 0.162 | 0.175 | 0.186 | 0.206 | 0.346 | 0.193 | 0.376 | 0.429 | 0.356 | 0.353 | 0.208 | 0.156 | 0.305 | 0.213 | 0.259 |  | 
4 | NCI-H661 | 0.886 | 0.941 | 0.934 | 0.882 | 0.631 | 0.522 | 0.475 | 0.606 | 0.765 | 0.795 | 0.819 | 0.755 | 0.728 |  |  |  | 0.517 | 
5 | NCI-H2126 | 0.677 | 0.676 | 0.663 | 0.688 | 0.512 | 0.513 | 0.535 | 0.543 | 0.717 | 0.565 | 0.67 | 0.5 | 0.457 | 0.971 | 0.997 | 1.1 | 0.564 | 0.99
6 | LCLC-97TM1 | 0.178 | 0.207 | 0.147 | 0.186 | 0.15 |  | 0.184 | 0.268 | 0.673 | 0.58 | 0.63 | 0.33 | 0.291 | 0.286 | 0.298 | 0.342 | 0.201 | 0.326
7 | NCI-H2405 | 0.854 | 1.01 | 0.922 | 0.85 | 0.448 | 0.622 | 0.473 | 0.608 | 1.13 | 1.06 | 1.06 | 0.682 | 0.59 | 0.709 | 0.696 | 0.721 |  | 
8 | COR-L 105 | 1.22 | 1.18 | 1.13 | 1.04 | 0.999 | 0.418 |  | 0.655 | 0.867 | 0.86 | 0.784 | 0.668 | 0.838 |  |  |  | 0.428 | 
9 | BEN | 0.78 | 0.754 | 0.472 | 0.586 | 0.46 | 0.935 | 1.01 | 0.811 | 0.588 | 0.544 | 0.715 | 0.578 | 0.584 | 0.566 | 0.761 | 0.638 | 0.638 | 0.392
10 | HCC-827 | 0.259 | 0.23 | 0.276 | 0.264 | 0.242 | 0.52 |  | 0.585 | 0.899 | 0.707 | 0.495 | 0.856 | 0.647 | 0.234 |  | 0.265 | 0.73 | 0.198
11 | NCI-H3122 | 0.207 | 0.198 | 0.19 | 0.207 | 0.243 | 0.219 | 0.271 | 0.304 | 0.783 | 0.985 | 1.28 | 1.01 | 0.491 | 0.988 | 0.895 | 1.09 | 0.243 | 0.922
12 | LK-2 | 0.238 |  | 0.237 | 0.174 | 0.158 | 0.889 | 0.693 | 0.607 | 0.261 | 0.264 | 0.261 | 0.234 | 0.306 | 0.397 | 0.428 | 0.312 | 1.12 | 0.406
13 | HCC-15 | 0.221 | 0.239 | 0.211 | 0.227 | 0.231 | 0.373 | 0.363 | 0.429 | 0.913 | 0.863 | 0.908 | 0.598 | 0.704 | 1.05 | 1.22 | 1.1 | 0.43 | 1.17
14 | IA-LM |  |  |  |  |  |  |  |  | 0.882 |  | 1.32 | 0.92 | 0.867 |  |  |  |  | 
15 | NCI-H1755 | 0.5 | 0.417 | 0.454 | 0.655 | 0.439 | 0.812 | 0.73 | 0.763 | 0.774 | 0.71 | 0.873 | 0.605 | 0.632 | 0.483 | 0.459 | 0.408 | 0.761 | 0.328
16 | EMC-BAC-2 | 0.385 | 0.493 | 0.478 | 0.472 | 0.392 | 0.806 | 0.907 | 1.08 | 0.448 |  | 0.455 | 0.278 | 0.261 | 1.06 | 1.09 | 1.05 |  | 0.851
17 | NCI-H838 | 0.245 | 0.255 | 0.249 | 0.234 | 0.214 | 0.527 | 0.528 | 0.548 | 0.675 | 0.697 | 0.72 | 0.642 | 0.606 | 0.899 | 0.955 | 0.918 | 0.257 | 0.709
18 | NCI-H1650 | 0.404 | 0.361 | 0.369 | 0.405 | 0.475 | 0.595 | 0.406 | 0.577 | 0.585 | 0.599 | 0.756 | 0.491 | 0.368 |  |  |  | 0.633 | 
19 | NCI-H1975 | 0.336 | 0.275 | 0.292 | 0.303 | 0.259 | 0.328 | 0.327 | 0.281 | 0.696 | 0.674 | 0.61 | 0.426 | 0.402 | 0.689 | 0.697 | 0.654 | 0.259 | 0.396
20 | NCI-H522 | 1.04 | 0.956 | 0.717 | 0.858 | 0.664 | 0.695 | 0.63 | 0.783 | 0.79 | 0.977 | 1.04 | 0.867 | 0.742 | 0.797 | 0.855 | 0.869 | 0.786 | 0.755
21 | NCI-H1437 | 0.357 | 0.348 | 0.26 | 0.259 | 0.24 | 0.474 | 0.538 | 0.629 | 0.886 | 0.886 | 0.963 | 0.734 | 0.692 | 1.14 | 1.04 | 1.09 | 0.626 | 0.943
